In patent EP0200406A2, “Novel amino acid derivatives” (Kissei Pharmaceutical Co Ltd, priority 1985, dated 1986):

Assays:
[1] = molecular target: T1, renin (Homo sapiens, UniProt P00797); test: Human renin-sheep renin substrate reaction system in vitro; type: biochemical; conditions: purified human renin, semipurified sheep renin substrate, pH 7.4, 15 minutes at 37°C, angiotensin I by radioimmunoassay; read-out: IC50 molar concentration
T1 sequence (P00797 67-406): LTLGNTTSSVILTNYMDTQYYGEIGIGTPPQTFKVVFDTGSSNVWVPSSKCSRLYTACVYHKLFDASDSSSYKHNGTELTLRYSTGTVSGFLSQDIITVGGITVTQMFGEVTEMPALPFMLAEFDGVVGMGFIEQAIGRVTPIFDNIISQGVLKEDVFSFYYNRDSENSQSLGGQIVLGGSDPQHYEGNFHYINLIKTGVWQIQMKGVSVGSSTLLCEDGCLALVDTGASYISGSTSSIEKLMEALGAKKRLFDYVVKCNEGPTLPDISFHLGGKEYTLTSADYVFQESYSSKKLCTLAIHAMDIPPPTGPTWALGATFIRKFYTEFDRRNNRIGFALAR
Procedure: To a mixture containing 200 µl of a 125 mM pyrophosphate buffer (pH 7.4), 25 µl of a 20 mM aqueous solution of L-phenylalanyl-L-alanyl-L-prolin as an angiotensin cnverting enzyme inhibitor, 50 µ01 of semipurified sheep renin substrate (2000 ng angiotensin I/ml), 50 µl of dimethyl sulfoxide solution of an amino acid compound of the present invention and 150 µl of deionized water was added 25 µl of purified human renin (20-30 ng angiotensin I/ml/hr. The mixture was incubated for 15 minutes on a water bath at 37°C, and the reaction mixture was allowed to stand for 5 minutes on a water bath at 100°C to stop the reaction. After cooling, 200 µl of the solution were taken up and the amount of angiotensin I produced by the addition of renin was determined by radiommunoassay. The inhibitory effect was calculated by the following equation.
As a control, the same procedure as above was carried out by using 50 µl of dimethyl sulfoxide alone in place of the 50 µl of dimethyl sulfoxide solution containing an amino acid compound of the present invention.

[2] = tested on: common marmoset; test: Hypotensive effect in marmoset; type: in vivo; conditions: orally 30 mg/kg, conscious male marmosets in high renin state (furosemide), Control 103.5
Procedure: The experiment was carrried out by using common marmoset as described in K.G. Hofbauer et al., Clinical and Experimental hypertension, Vol. A5, Nos. 7 & 8 (1983), pages 1237-1247.
Furosemide was orally administered three times to common marmoset at 15 mg per kilogram per day every other day to create a high renin state. Blood pressure of consious marmoset was measured 2 days after the last administration of furosemide.
Three consious male marmosets marmosets weighing 305-345 g were fixed. Mean blood pressure at tail artery was recorded on pretismograph instrument. The amino acid compound, of the present invention isopropyl (2RS. 3S)-3-{N-[2-(1-naphthylmethyl)-3-(morpholinocarbonylpropionyl]-L-histidyl}amino-2-hydroxy-5-methylhexanoate and administered orally at 30 mg/kg by using a catheter. The results obtained are shown below.

[3] = molecular target: T1, renin; test: Renin inhibitory effect in a human high renin plasma; type: biochemical; parameters: from tissue; host or cells: human high renin plasma; conditions: pH 7, 60 minutes at 37°C, angiotensin I by radioimmunoassay, read-out: IC50 (molar concentration)
Procedure: A mixture of 350 µl of a 0.5 M phosphate buffer containing 14 mM EDTA 2Na and a 0.3% neomycin sulfate, which was adjusted to the pH of 7, 50 µl of a 20 mM an aqueous solution of L-phenylalanyl-L-alanyl-L-prolin as an angiotensin converting enzyme inhibitor and 100 µl of dimethyl sulfoxide solution containing an amino acid compound of the present invention was added to 500 µl of human high renin plasma, and 200 µl of the mixture was incubated at 4°C in an ice bath, and remaining mixture (800 µl) was incubated for 60 minutes at 37°C in a water bath. A 200 µl sample was withdrawn from the incubated mixture, chilled immediately in an ice bath, and the amount (A) of angiotensin I produced was determined by radioimmunoassay.
Also, the amount (B) of angiotensin I produced in the incubated mixture at 4°C in an ice bath was determined by radioimmunoassy.
As a control, the same procedure as above was carried out by using 100 µl of dimethyl sulfoxide alone in place of the 100µl of dimethyl sulfoxide solution containing an amino acid compound of the present invention.
The renin inhibitory effect in human plasa was calculated by taking the amount of angiotensin I - (A) from the amount of angiotensin I (B). The inhibotory effect was calculated by the following equation. [formula]

| SMILES | IC50 [1] | IC50 [3] | further results |
| --- | --- | --- | --- |
| CNC(=O)C(O)[C@H](CC(C)C)NC(=O)[C@H](Cc1c[nH]cn1)NC(=O)C(CC(=O)N1CCOCC1)Cc1cccc2ccccc12 (mixture of isomers) [Example 3, (2RS, 3S)-3-{N-[2-(1-Naphthylmethyl)-3-(morpholinocarbonyl)propionyl]-L-histidyl}amino-2-hydroxy-5-methylhexanoylmethylamide] | 340 nM | – | – |
| CCNC(=O)CC(Cc1cccc2ccccc12)C(=O)N[C@@H](Cc1c[nH]cn1)C(=O)N[C@@H](CC(C)C)C(O)C(=O)OC (mixture of isomers) [Example 10, Methyl (2RS, 3S)-3-{N-[2-(1-naphthylmethyl)-3-(ethylcarbamoyl)propionyl]-L-histidyl}amino-2-hydroxy-5-methylhexanoate] | 630 nM | – | – |
| CC(C)CCNC(=O)C[C@H](O)[C@H](CC(C)C)NC(=O)[C@H](Cc1c[nH]cn1)NC(=O)C(CC(=O)N1CCOCC1)Cc1cccc2ccccc12 (stereo partly drawn) [Example 13, N-[2-(1-Naphthyfmethyl)-3-(morpholinocarbouyl)-propionyl]-L-histidyl-statylisoamylamide] | 36 nM | – | – |
| COC(=O)C[C@H](O)[C@H](CC(C)C)NC(=O)[C@H](Cc1c[nH]cn1)NC(=O)C(CC(=O)N1CCOCC1)Cc1cccc2ccccc12 (stereo partly drawn) [Example 11, Methyl N-[2-(1-naphthylmethyl)-3-(morpholinocarbonyl)propionyl]-L-histidyistatinate] | 210 nM | – | – |
| CC(C)C[C@H](NC(=O)[C@H](Cc1cnc[nH]1)NC(=O)C(CC(=O)N1CCOCC1)Cc1cccc2ccccc12)C(O)C(=O)OC(C)C (stereo partly drawn) [Example 1] | – | – | Mean blood pressure ([2]; 0.5 hours after administration): 88.7 mmHg; Mean blood pressure ([2]; 1 hour after administration): 85.6 mmHg; Mean blood pressure ([2]; 2 hours after administration): 87.2 mmHg; Mean blood pressure ([2]; 3 hours after administration): 89.3 mmHg; Mean blood pressure ([2]; 5 hours after administration): 92.4 mmHg; Mean blood pressure ([2]; 7 hours after administration): 92.3 mmHg; Mean blood pressure ([2]; 9 hours after administration): 92.8 mmHg; Mean blood pressure ([2]; 24 hours after administration): 101.9 mmHg |
| CC(C)C[C@H](NC(=O)[C@H](Cc1c[nH]cn1)NC(=O)C(CC(=O)N1CCCCC1)Cc1cccc2ccccc12)C(O)C(=O)OC(C)C (stereo partly drawn) [Example 5, lsopropyl (2RS, 3S)-3-{N-[2-(1-Naphthytmethyl)-3-(piperidinocarbonyl)propionyl}-t-hisfidyl)amino-2-hydroxy-5-methylhexanoate] | 28 nM | 88 nM | – |
| CNC(=O)C(O)[C@H](CC(C)C)NC(=O)[C@H](Cc1c[nH]cn1)NC(=O)C(CC(=O)N1CCCCC1)Cc1cccc2ccccc12 (mixture of isomers) [Example 7, (2RS, 3S)-3-{N-[2-(1-Naphthylmethyl)-3-(piperidinocarbonyl)propionyl]-L-histidyl}amino-2-hydroxy-5-methylhexanoylmethylamide] | 690 nM | 5200 nM | – |
| COC(=O)C(O)[C@H](CC(C)C)NC(=O)[C@H](Cc1c[nH]cn1)NC(=O)C(CC(=O)N1CCCC1)Cc1cccc2ccccc12 (stereo partly drawn) [Example 8, Methyl (2RS, 3S)-3-{N-[2-(1-naphthylmethyl)-3-(pyrroiidinocarbonyl)propionyl]-L-histidyl}amino-2-hydroxy-5-methylhexanoate] | 69 nM | 62 nM | – |
